Measurements published in patent US20120252820A1, “METHODS OF TREATING FUNGAL INFECTIONS” (NORTHEASTERN UNIVERSITY, priority 2008, published 2012).
Values after ≈ are worked out from the molar mass of the structure shown.

How the values were obtained:
[1] = tested on: C. albicans 3153A biofilms; assay: Biofilm killing by antifungals, CFU determination; assay type: cell-based, Candida albicans; conditions: for killing curve of biofilm: dose-dependent, 24 hrs challenge
Description: (§1) Biofilms of C. albicans 3153A cells were cultured in wells of microtiter plates in RPMI medium for 48 hrs (Ramage et al., Antimicrob. Agents Chemother. 45:2475-2479 (2001)), washed twice in PBS, pH 7.4, to remove nonadherent cells, and resuspended in 100 μl RPMI growth medium containing antifungals. After 24 hrs of antifungal challenge, the biofilms and cultures were washed twice, resuspended in 100 μl PBS, scraped, transferred into eppendorf tubes, vortexed and plated for colony forming unit (CFU) determination on YPD medium. […] This could lead to an underestimation of surviving cells by a factor of ≦10. In parallel, exponentially growing and stationary planktonic cultures were grown for 48 hrs in RPMI medium, and then antifungals were added for 24 hrs. The experiment was performed in triplicate and error bars indicate standard deviation (see FIGS. 1A-1B).
Biofilms were grown in microtiter plates and were treated with amphotericin B or chlorhexidine (100 μg/ml) for 24 hrs, after which they were washed and vortexed, as discussed above. The cells were then reinoculated into microtiter plates to form new biofilms. The new biofilms, derived from persisters that survived drug treatment, were again treated with the antifungal agents (as discussed above), and the procedure was repeated a total of 3 times. Biofilms were sampled for CFU determination before and after antifungal treatment. The experiment was performed in triplicate.
Tests were also performed to determine if yeast persisters were multidrug tolerant. Mature, 48 hr biofilms of C. albicans were challenged for 24 hrs with 100 μg/ml amphotericin B, 100 μg/ml chlorhexidine, or a combination of these two antifungal agents, using the same procedures discussed above. Biofilms were washed and sampled for CFU determination before and after antifungal treatment, as discussed above.

[2] = tested on: C. albicans 3153A planktonic cultures; assay: Killing of exponentially growing and stationary planktonic cultures, CFU determination; assay type: cell-based, Candida albicans; conditions: planktonic cultures in RPMI, antifungal 24 hrs
Description: as §1

C. albicans = assay: MIC; assay type: cell-based; conditions: Candida albicans
[3] = tested on: Biofilm-Deficient Strains of C. albicans; assay: Persister formation by biofilm-deficient strains (survival to high levels of amphotericin B); assay type: cell-based, Candida albicans
Description: as §1
Given that persisters appeared only in the biofilm, their formation was dependent on the same genes/pathways that determine biofilm development. A large panel of biofilm-defective mutants was therefore tested for their ability to produce persisters by measuring survival to high levels of amphotericin B. These mutants were able to adhere to the surface of a microtiter plate, making it possible to assay in the biofilm survival protocol described above. All strains appeared to produce essentially normal levels of persisters (Table 1).

[H]/N=C(\N/C(=N/[H])NCCCCCCNC(=N)NC(=N)Nc1ccc(Cl)cc1)Nc1ccc(Cl)cc1 [chlorhexidine]
concentration above which killing of persisters was observed ([1]; biofilm, 24 hrs): above 100 μg/ml | concentration at which the biofilm was completely sterilized ([1]; biofilm, 24 hrs): 1000 µg/mL | killing curve of biofilm ([1]; CFU): biphasic killing | killing of exponentially growing and stationary cells [2]: eliminated | MIC (C. albicans): 4 µg/mL (≈ 7.91 µM)

C[C@@H]1[C@H](O)[C@@H](C)/C=C/C=C/C=C/C=C/C=C/C=C/C=C/[C@H](O[C@@H]2O[C@H](C)[C@@H](O)[C@H](N)[C@@H]2O)C[C@@H]2O[C@](O)(C[C@@H](O)C[C@@H](O)[C@H](O)CC[C@@H](O)C[C@@H](O)CC(=O)O[C@H]1C)C[C@H](O)[C@H]2C(=O)O [amphotericin B]
cells invulnerable (persisters) in biofilm ([1]; biofilm, higher concentrations of the drug, 24 hrs): More than 1% | killing curve of biofilm ([1]; CFU): biphasic killing | killing of exponentially growing and stationary cells [2]: effectively killed | Persisters ([3]; strain 3153A, control wild type): +++^1 (+++ indicates 1-2% survival) | Persisters ([3]; strain CAI4): +^3 (+ indicates 0.05-0.1% survival) | Persisters ([3]; strain CJN698 (bcr1 with BCR1)): ++ (++ indicates 0.1-1% survival) | Persisters ([3]; strain CJN702 (bcr1)): ++ (++ indicates 0.1-1% survival) | Persisters ([3]; strain CKY136 (efg1)): +++ (+++ indicates 1-2% survival) | Persisters ([3]; strain CKY138 (efg1 cph1Δ)): ++ (++ indicates 0.1-1% survival) | Persisters ([3]; strain CKY357 (mkc1Δ)): ++^2 (++ indicates 0.1-1% survival) | Persisters ([3]; strain DAY185): ++ (++ indicates 0.1-1% survival) | Persisters ([3]; strain DAY286): ++ (++ indicates 0.1-1% survival) | Persisters ([3]; strain GKO9 (mds3)): ++ (++ indicates 0.1-1% survival) | Persisters ([3]; strain GKO443 (suv3)): ++ (++ indicates 0.1-1% survival) | Persisters ([3]; strain GKO798 (kem1)): ++ (++ indicates 0.1-1% survival) | Persisters ([3]; strain GKO814 (nup85)): ++ (++ indicates 0.1-1% survival) | Persisters ([3]; strain MC191 (flo8/flo8)): +++ (+++ indicates 1-2% survival) | Persisters ([3]; strain MC195 (flo8 with FLO8-2)): + (+ indicates 0.05-0.1% survival) | Persisters ([3]; strain MC245 (flo8/FLO8)): ++ (++ indicates 0.1-1% survival)

CC[C@H](C)C[C@H](C)CCCCCCCCC(=O)N[C@H]1C[C@@H](O)[C@@H](NCCN)NC(=O)[C@@H]2[C@@H](O)CCN2C(=O)[C@H]([C@H](O)CCN)NC(=O)[C@H]([C@H](O)[C@@H](O)c2ccc(O)cc2)NC(=O)[C@@H]2C[C@@H](O)CN2C(=O)[C@H]([C@@H](C)O)NC1=O [Caspofungin, caspofungin]
killing of biofilms ([1]; C. albicans 3153A biofilms, 24 hrs antifungal challenge, CFU): ≤ 10 fold
